Laboratory results published in patent US20060069132A1, “Azolecarboxamide herbicides” (priority 2004, published 2006).

Columns and labels:
[1] = tested on: lambsquarters; assay: Test C pre-/postemergence herbicide test; format: in vivo, Chenopodium album; conditions: for Lambsquarters plant response rating: 500 g ai/ha
Method in brief: (§1)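 Visual ratings on a 0–100 scale (100 = complete control) made versus untreated controls after 12 to 14 greenhouse days. Test chemicals, formulated in surfactant-containing non-phytotoxic solvent, applied preemergence to planted seeds or postemergence to 1- to 4-leaf plants (2 to 18 cm).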

[2] = tested on: redroot pigweed; assay: Test A pre-/postemergence herbicide test; format: in vivo, Amaranthus retroflexus
Method in brief: (§2)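 Visual injury scores on a 0–100 scale (100 = complete control) taken about ten days post-treatment in greenhouse against untreated controls; dash means no result. Treatments: preemergence soil spray and postemergence spray to runoff on one- to two-leaf plants 2 to 10 cm tall, surfactant-containing formulation.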

[3] = tested on: large crabgrass; assay: Test A pre-/postemergence herbicide test; format: in vivo, Digitaria sanguinalis
Method in brief: as §2

[4] = tested on: giant foxtail; assay: Test C pre-/postemergence herbicide test; format: in vivo, Setaria faberi; conditions: for Foxtail, Giant plant response rating: 500 g ai/ha
Method in brief: as §1

[5] = tested on: barnyardgrass; assay: Test A pre-/postemergence herbicide test; format: in vivo, Echinochloa crus-galli
Method in brief: as §2

[6] = tested on: common ragweed; assay: Test C pre-/postemergence herbicide test; format: in vivo, Ambrosia elatior; design: key to Plant response rating, Ragweed: 0 = no effect, 100 = complete control; conditions: for Ragweed plant response rating: 500 g ai/ha
Method in brief: as §1

[7] = tested on: common (oilseed) sunflower; assay: Test C pre-/postemergence herbicide test; format: in vivo, Helianthus annuus; conditions: for Plant response rating (0 = no effect, 100 = complete control), Sunflower: 62 g ai/ha; for Plant response rating (0 = no effect, 100 = complete control), Sunflower / Plant response rating, Sunflower: preemergence; for Plant response rating, Sunflower: 125 g ai/ha, scale 0 (no effect) to 100 (complete control), visual, 12 to 14 days; for Sunflower plant response rating: Preemergence, 500 g ai/ha, scale 0 to 100, 0 no effect, 100 complete control
Method in brief: as §1

[8] = tested on: velvetleaf; assay: Test C pre-/postemergence herbicide test; format: in vivo, Abutilon theophrasti; conditions: for Velvetleaf plant response rating: 500 g ai/ha
Method in brief: as §1

[9] = tested on: corn; assay: Test C pre-/postemergence herbicide test; format: in vivo, Zea mays; conditions: for Corn plant response rating: 500 g ai/ha
Method in brief: as §1

[10] = tested on: kochia; assay: Test C pre-/postemergence herbicide test; format: in vivo, Kochia scoparia; conditions: for Plant response rating (0 = no effect, 100 = complete control), Kochia: 62 g ai/ha; for Kochia plant response rating: 500 g ai/ha
Method in brief: as §1

[11] = 125 g ai/ha, scale 0 (no effect) to 100 (complete control), visual, 12 to 14 days, preemergence
[12] = Preemergence, scale 0 to 100, 0 no effect, 100 complete control
[13] = Postemergence, 500 g ai/ha, 0 to 100 scale, 0 no effect, 100 complete control
[14] = Postemergence, 2000 g ai/ha, 0 to 100 scale, 0 no effect, 100 complete control
[15] = Preemergence, 2000 g ai/ha, visual rating, 0 to 100 scale (0 no effect, 100 complete control)
[16] = preemergence, 500 g ai/ha, visual injury, 0 to 100 scale (0 no effect, 100 complete control)
[17] = Preemergence, 500 g ai/ha, visual rating, 0 to 100 scale (0 no effect, 100 complete control)
[18] = 250 g ai/ha, scale 0 to 100 (0 no effect, 100 complete control), visual, 12 to 14 days, preemergence
[19] = Postemergence, 250 g ai/ha, scale 0 to 100, 0 no effect, 100 complete control
[20] = postemergence, 125 g ai/ha, scale 0 to 100
[21] = postemergence, 62 g ai/ha, scale 0 to 100

SMILES: CCCCOc1cccc(NC(=O)c2cc(C(C)(C)C)nn2CC)c1 [Compound 137]
- Plant response rating (0 = no effect, 100 = complete control), Lambsquarters ([1]; 62 g ai/ha, preemergence): 40
- Plant response rating, Lambsquarters [1, 11]: 100
- Lambsquarters plant response rating [1, 12]: 100
- Pigweed plant response rating [2, 13]: 90
- Plant response rating, Pigweed [2, 14]: 100
- Pigweed plant response rating [2, 15]: 90
- Pigweed plant response rating [2, 16]: 60
- Crabgrass, Large plant response rating [3, 13]: 30
- Plant response rating, Crabgrass, Large [3, 14]: 60
- Crabgrass, Large plant response rating [3, 17]: 55
- Crabgrass, Large plant response rating [3, 15]: 90
- Plant response rating (0 = no effect, 100 = complete control), Foxtail, Giant ([4]; 62 g ai/ha, preemergence): 10
- Plant response rating, Foxtail, Giant [4, 11]: 50
- Plant response rating, Foxtail, Giant [4, 18]: 60
- Foxtail, Giant plant response rating [4, 12]: 85
- Barnyardgrass plant response rating [5, 13]: 20
- Plant response rating, Barnyardgrass [5, 14]: 25
- Barnyardgrass plant response rating [5, 17]: 30
- Barnyardgrass plant response rating [5, 15]: 60
- Plant response rating (0 = no effect, 100 = complete control), Ragweed ([6]; 62 g ai/ha, preemergence): 0
- Plant response rating, Ragweed [6, 11]: 0
- Ragweed plant response rating [6, 12]: 100
- Plant response rating (0 = no effect, 100 = complete control), Sunflower [7]: 0
- Plant response rating, Sunflower [7]: 0
- Sunflower plant response rating [7]: 0
- Plant response rating, Velvetleaf [8, 11]: 10
- Velvetleaf plant response rating [8, 12]: 100
- Plant response rating (0 = no effect, 100 = complete control), Corn ([9]; 62 g ai/ha, preemergence): 0
- Plant response rating, Corn [9, 11]: 5
- Plant response rating, Corn [9, 18]: 5
- Corn plant response rating [9, 12]: 5
- Plant response rating (0 = no effect, 100 = complete control), Kochia ([10]; preemergence): 80
- Plant response rating, Kochia [10, 11]: 90
- Kochia plant response rating [10, 12]: 100

SMILES: CCNC(=O)c1cccc(NC(=O)c2cc(C(C)(C)C)nn2CC)n1 [Compound 144]
- Plant response rating (0 = no effect, 100 = complete control), Lambsquarters ([1]; 62 g ai/ha, preemergence): 95
- Plant response rating, Lambsquarters [1, 11]: 95
- Lambsquarters plant response rating ([1]; Postemergence, scale 0 to 100): 100
- Plant response rating, Lambsquarters [1, 19]: 100
- Lambsquarters plant response rating [1, 12]: 100
- Plant response rating, Lambsquarters [1, 20]: 100
- Plant response rating, Lambsquarters [1, 21]: 100
- Pigweed plant response rating [2, 13]: 100
- Plant response rating, Pigweed [2, 14]: 100
- Pigweed plant response rating [2, 15]: 100
- Pigweed plant response rating [2, 16]: 100
- Crabgrass, Large plant response rating [3, 13]: 55
- Plant response rating, Crabgrass, Large [3, 14]: 90
- Crabgrass, Large plant response rating [3, 17]: 90
- Crabgrass, Large plant response rating [3, 15]: 90
- Plant response rating (0 = no effect, 100 = complete control), Foxtail, Giant ([4]; 62 g ai/ha, preemergence): 40
- Plant response rating, Foxtail, Giant [4, 11]: 70
- Plant response rating, Foxtail, Giant [4, 18]: 100
- Foxtail, Giant plant response rating ([4]; Postemergence, scale 0 to 100): 70
- Plant response rating, Foxtail, Giant [4, 19]: 50
- Foxtail, Giant plant response rating [4, 12]: 100
- Plant response rating, Foxtail, Giant [4, 20]: 10
- Plant response rating, Foxtail, Giant [4, 21]: 0
- Barnyardgrass plant response rating [5, 13]: 85
- Plant response rating, Barnyardgrass [5, 14]: 100
- Barnyardgrass plant response rating [5, 17]: 100
- Barnyardgrass plant response rating [5, 15]: 100
- Plant response rating (0 = no effect, 100 = complete control), Ragweed ([6]; 62 g ai/ha, preemergence): 0
- Plant response rating, Ragweed [6, 11]: 30
- Ragweed plant response rating ([6]; Postemergence, scale 0 to 100): 80
- Plant response rating, Ragweed [6, 19]: 50
- Ragweed plant response rating [6, 12]: 80
- Plant response rating, Ragweed [6, 20]: 0
- Plant response rating, Ragweed [6, 21]: 0
- Plant response rating (0 = no effect, 100 = complete control), Sunflower [7]: 0
- Plant response rating, Sunflower [7]: 0
- Sunflower plant response rating [7]: 40
- Plant response rating, Velvetleaf [8, 11]: 100
- Velvetleaf plant response rating ([8]; Postemergence, scale 0 to 100): 50
- Plant response rating, Velvetleaf [8, 19]: 50
- Velvetleaf plant response rating [8, 12]: 100
- Plant response rating, Velvetleaf [8, 20]: 20
- Plant response rating, Velvetleaf [8, 21]: 0
- Plant response rating (0 = no effect, 100 = complete control), Corn ([9]; 62 g ai/ha, preemergence): 0
- Plant response rating, Corn [9, 11]: 30
- Plant response rating, Corn [9, 18]: 40
- Corn plant response rating ([9]; Postemergence, scale 0 to 100): 30
- Plant response rating, Corn [9, 19]: 20
- Corn plant response rating [9, 12]: 50
- Plant response rating, Corn [9, 20]: 20
- Plant response rating, Corn [9, 21]: 10
- Plant response rating (0 = no effect, 100 = complete control), Kochia ([10]; preemergence): 75
- Plant response rating, Kochia [10, 11]: 80
- Kochia plant response rating ([10]; Postemergence, scale 0 to 100): 85
- Plant response rating, Kochia [10, 19]: 70
- Kochia plant response rating [10, 12]: 100
- Plant response rating, Kochia [10, 20]: 65
